Measured values taken from ChEMBL document CHEMBL3399969, “Multifunctional scutellarin-rivastigmine hybrids with cholinergic, antioxidant, biometal chelating and neuroprotective properties for the treatment of Alzheimer's disease” (Bioorg Med Chem, 2015).

Experiments:
PC-12 = experiment: Neuroprotective effect against H2O2-induced rat PC12 cell injury assessed as cell viability at 10 uM incubated for 2 hrs prior to H2O2 challenge measured after 24 hrs by MTT assay (reference value: 57.6%); type: functional; conditions: read-out: Activity
Rattus norvegicus = organism: Rattus norvegicus; experiment: Selectivity index, ratio of IC50 for rat serum BuChE to IC50 for rat cortex AChE; type: cell-free
[1] = Antioxidant activity assessed as trolox equivalent of […]-induced radical scavenging activity by ORAC-FL method; type: physicochemical
Acetylcholinesterase = target: T1, Acetylcholinesterase (Rattus norvegicus, UniProt P37136); experiment: Inhibition of rat cortex AChE using acetylthiocholine iodide as substrate after 15 mins by Ellman method
T1 sequence (P37136 whole entry): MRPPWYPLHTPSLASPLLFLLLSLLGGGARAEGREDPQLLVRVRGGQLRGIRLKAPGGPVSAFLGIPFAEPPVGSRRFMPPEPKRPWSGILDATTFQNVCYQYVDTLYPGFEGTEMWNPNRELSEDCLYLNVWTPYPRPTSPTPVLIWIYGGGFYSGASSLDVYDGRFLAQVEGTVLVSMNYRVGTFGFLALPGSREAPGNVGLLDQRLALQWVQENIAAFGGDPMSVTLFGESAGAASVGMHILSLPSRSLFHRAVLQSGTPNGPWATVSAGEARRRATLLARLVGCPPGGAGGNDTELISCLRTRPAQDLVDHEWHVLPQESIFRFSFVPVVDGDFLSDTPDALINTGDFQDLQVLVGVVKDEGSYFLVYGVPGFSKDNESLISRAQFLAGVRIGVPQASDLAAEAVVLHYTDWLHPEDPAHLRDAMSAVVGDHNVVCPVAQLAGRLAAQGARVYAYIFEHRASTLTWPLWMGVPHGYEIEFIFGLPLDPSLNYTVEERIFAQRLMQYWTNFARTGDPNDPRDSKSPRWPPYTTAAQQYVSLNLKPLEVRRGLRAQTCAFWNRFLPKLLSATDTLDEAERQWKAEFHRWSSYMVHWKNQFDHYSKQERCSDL

[2] = Inhibition of rat serum BuChE using butyrylthiocholine iodide as substrate after 15 mins by Ellman method; type: cell-free
[3] = Metal chelating activity of the compound assessed as Al3+ complex formation after 30 mins by UV-Vis spectrometry; type: physicochemical; conditions: 0.5 h
[4] = Metal chelating activity of the compound assessed as Cu2+ complex formation after 30 mins by UV-Vis spectrometry; type: physicochemical; conditions: 0.5 h
[5] = Metal chelating activity of the compound assessed as Fe2+ complex formation after 30 mins by UV-Vis spectrometry; type: physicochemical; conditions: 0.5 h
[6] = Metal chelating activity of the compound assessed as Zn2+ complex formation after 30 mins by UV-Vis spectrometry; type: physicochemical; conditions: 0.5 h

Row | Structure (SMILES) | viability at 10 µM (PC-12) | Ratio IC50 (Rattus norvegicus) | Activity [1] | IC50 (Acetylcholinesterase) | IC50 [2] | Activity [3] | Activity [4] | Activity [5] | Activity [6]
1 | COc1cc2oc(-c3cccc(OC(=O)N4CCN(Cc5ccccc5)CC4)c3)cc(=O)c2c(O)c1OC | 80.3% | 0.3 | 1.3 | 51.7 µM | 15.7 µM |  |  |  | 
2 | COc1cc2oc(-c3cccc(OC(=O)N4CCN(C)CC4)c3)cc(=O)c2c(OC)c1OC | 82.1% | > 3.2 | 0.36 | 31.2 µM | > 100 µM |  |  |  | 
3 | COc1cc2oc(-c3ccc(OC(=O)N(C(C)C)C(C)C)cc3)cc(=O)c2c(OC)c1OC |  | 2.8 | 0.33 | 13.7 µM | 38.2 µM |  |  |  | 
4 | COc1cc2oc(-c3ccc(O)cc3)cc(=O)c2c(OC)c1OC |  |  | 2.6 | > 100 µM | > 100 µM |  |  |  | 
5 | CCN(CC)C(=O)Oc1cccc(-c2cc(=O)c3c(OC)c(OC)c(OC)cc3o2)c1 | 70.8% | 4.9 | 0.31 | 6.11 µM | 30.1 µM |  |  |  | 
6 | COc1cc2oc(-c3cccc(OC(=O)N(C)C)c3)cc(=O)c2c(O)c1OC |  | 0.9 | 1.2 | 25.7 µM | 23.6 µM |  |  |  | 
7 | CCN(CC)C(=O)Oc1ccc(-c2cc(=O)c3c(OC)c(OC)c(OC)cc3o2)cc1 | 70.3% | 24.1 | 0.36 | 0.34 µM | 8.2 µM | Active | Active | Active | Active
8 | COc1cc2oc(-c3cccc(OC(=O)N4CCN(Cc5ccccc5)CC4)c3)cc(=O)c2c(OC)c1OC |  | 0.1 | 0.34 | 87.1 µM | 7.1 µM |  |  |  | 
9 | COc1cc2oc(-c3ccc(OC(=O)N(C(C)C)C(C)C)cc3)cc(=O)c2c(O)c1OC | 68.7% |  | 1 | > 100 µM | > 100 µM |  |  |  | 
10 | COc1cc2oc(-c3ccc(O)cc3)cc(=O)c2c(O)c1OC [CIRSIMARITIN] |  |  | 5.4 | > 100 µM | > 100 µM |  |  |  | 
11 | COc1cc2oc(-c3cccc(O)c3)cc(=O)c2c(OC)c1OC |  |  | 1.8 | > 100 µM | > 100 µM |  |  |  | 
12 | COc1cc2oc(-c3ccc(OC(=O)N4CCOCC4)cc3)cc(=O)c2c(O)c1OC | 66.5% |  | 0.9 | > 100 µM | > 100 µM |  |  |  | 
13 | COc1cc2oc(-c3ccc(OC(=O)N4CCN(C)CC4)cc3)cc(=O)c2c(OC)c1OC | 82.4% | 5.6 | 0.29 | 11.4 µM | 63.8 µM |  |  |  | 
14 | COc1cc2oc(-c3ccc(OC(=O)N4CCCCC4)cc3)cc(=O)c2c(OC)c1OC | 65.2% | 0.7 | 0.31 | 21.2 µM | 15.3 µM |  |  |  | 
15 | COc1cc2oc(-c3ccc(OC(=O)N4CCN(Cc5ccccc5)CC4)cc3)cc(=O)c2c(OC)c1OC | 81.9% | 35.8 | 0.32 | 1.04 µM | 37.2 µM |  |  |  | 
16 | COc1cc2oc(-c3ccc(OC(=O)N4CCN(Cc5ccccc5)CC4)cc3)cc(=O)c2c(O)c1OC | 84.5% | > 10.8 | 0.9 | 9.25 µM | > 100 µM |  |  |  | 
17 | CCN(C)C(=O)Oc1cccc(-c2cc(=O)c3c(O)c(OC)c(OC)cc3o2)c1 |  | > 6.8 | 0.9 | 14.8 µM | > 100 µM |  |  |  | 
18 | COc1cc2oc(-c3cccc(OC(=O)N(C(C)C)C(C)C)c3)cc(=O)c2c(O)c1OC |  | > 1 | 1.1 | 96.5 µM | > 100 µM |  |  |  | 
